{"source": "patent US20230278972A1", "about": "“SUBSTITUTED HALOALKYL SULFONANILIDE HERBICIDES” (FMC Corporation, priority 2020, published 2023)", "assay_type_in_all_cases": "in vivo", "key": {"[1]": {"tested_on": "blackgrass (Alopecurus myosuroides)", "experiment": "Test A1 preemergence, blackgrass", "method_in_brief": "(§1)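 Pre: seeds in loam/sand blend, directed soil spray. Post: potted plants, same soil, 2–10 cm, 1–2 leaf stage. Chemicals in non-phytotoxic solvent + surfactant for both.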"}, "corn (Zea mays) [2]": {"tested_on": "corn (Zea mays)", "experiment": "Test A1 preemergence, corn", "method_in_brief": "as §1"}, "[3]": {"tested_on": "Foxtail, Giant (giant foxtail, Setaria faberi)", "experiment": "Test A1 preemergence, Foxtail, Giant", "method_in_brief": "as §1"}, "[4]": {"tested_on": "goosegrass (Eleusine indica)", "experiment": "Test A1 preemergence, goosegrass", "method_in_brief": "as §1"}, "kochia (Bassia scoparia) [5]": {"tested_on": "kochia (Bassia scoparia)", "experiment": "Test A1 preemergence, kochia", "method_in_brief": "as §1"}, "[6]": {"tested_on": "Oat, Wild (wild oat, Avena fatua)", "experiment": "Test A1 preemergence, Oat, Wild", "method_in_brief": "as §1"}, "[7]": {"tested_on": "Pigweed, Palmer (palmer amaranth, palmer pigweed, Amaranthus palmeri)", "experiment": "Test A1 preemergence, Pigweed, Palmer", "method_in_brief": "as §1"}, "[8]": {"tested_on": "ragweed (common ragweed, Ambrosia artemisiifolia)", "experiment": "Test A1 preemergence, ragweed", "method_in_brief": "as §1"}, "[9]": {"tested_on": "Ryegrass, Italian (Italian ryegrass, Lolium multiflorum)", "experiment": "Test A1 preemergence, Ryegrass, Italian", "method_in_brief": "as §1"}, "soybean (Glycine max) [10]": {"tested_on": "soybean (Glycine max)", "experiment": "Test A1 preemergence, soybean", "method_in_brief": "as §1"}, "[11]": {"tested_on": "wheat (Triticum aestivum)", "experiment": "Test A1 preemergence, wheat", "method_in_brief": "as §1"}, "[12]": {"tested_on": "blackgrass (Alopecurus myosuroides)", "experiment": "Test A1 postemergence, blackgrass", "details": "Postemergence, 0 to 100 scale (0 no effect, 100 complete control)", "method_in_brief": "(§2)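 Plants were grown in a loam soil/sand blend, with test chemicals formulated in a non-phytotoxic solvent mixture containing surfactant. Preemergence treatment (corn) was a directed soil spray at planting. Postemergence treatment was applied to plants 2 to 10 cm tall at the one- to two-leaf stage.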"}, "corn (Zea mays) [13]": {"tested_on": "corn (Zea mays)", "experiment": "Test A1 postemergence, corn", "details": "Postemergence", "method_in_brief": "as §1"}, "[14]": {"tested_on": "Foxtail, Giant (giant foxtail, Setaria faberi)", "experiment": "Test A1 postemergence, Foxtail, Giant", "details": "Postemergence", "method_in_brief": "as §2"}, "[15]": {"tested_on": "goosegrass (Eleusine indica)", "experiment": "Test A1 postemergence, goosegrass", "details": "Postemergence", "method_in_brief": "as §2"}, "kochia (Bassia scoparia) [16]": {"tested_on": "kochia (Bassia scoparia)", "experiment": "Test A1 postemergence, kochia", "details": "Postemergence", "method_in_brief": "as §2"}, "[17]": {"tested_on": "Oat, Wild (wild oat, Avena fatua)", "experiment": "Test A1 postemergence, Oat, Wild", "details": "Postemergence", "method_in_brief": "as §1"}, "[18]": {"tested_on": "Pigweed, Palmer (palmer amaranth, palmer pigweed, Amaranthus palmeri)", "experiment": "Test A1 postemergence, Pigweed, Palmer", "details": "Postemergence", "method_in_brief": "as §1"}, "[19]": {"tested_on": "ragweed (common ragweed, Ambrosia artemisiifolia)", "experiment": "Test A1 postemergence, ragweed", "details": "Postemergence", "method_in_brief": "as §1"}, "[20]": {"tested_on": "Ryegrass, Italian (Italian ryegrass, Lolium multiflorum)", "experiment": "Test A1 postemergence, Ryegrass, Italian", "details": "Postemergence", "method_in_brief": "as §2"}, "soybean (Glycine max) [21]": {"tested_on": "soybean (Glycine max)", "experiment": "Test A1 postemergence, soybean", "details": "Postemergence", "method_in_brief": "as §2"}, "[22]": {"tested_on": "wheat (Triticum aestivum)", "experiment": "Test A1 postemergence, wheat", "details": "Postemergence", "method_in_brief": "as §2"}, "[23]": {"tested_on": "galium (catchweed bedstraw, Galium aparine)", "experiment": "Test A1 postemergence, galium", "details": "Postemergence", "method_in_brief": "as §2"}, "[24]": {"tested_on": "horseweed (Erigeron canadensis)", "experiment": "Test A1 postemergence, horseweed", "details": "Postemergence", "method_in_brief": "as §2"}, "[25]": {"tested_on": "barnyardgrass (Echinochloa crus-galli)", "experiment": "Test B1 flooded paddy test, barnyardgrass", "details": "250 g ai/ha, Flood, applied to paddy water, 2-leaf stage, visually evaluated after 10 to 14 days", "from_the_text": "(§3) A dash (-) response means no test result."}, "[26]": {"tested_on": "ducksalad (Heteranthera limosa)", "experiment": "Test B1 flooded paddy test, ducksalad", "details": "250 g ai/ha, Flood, applied to paddy water, 2-leaf stage, visually evaluated after 10 to 14 days", "from_the_text": "as §3"}, "rice (Oryza sativa)": {"tested_on": "rice (Oryza sativa)", "experiment": "Test B1 flooded paddy test, rice", "details": "250 g ai/ha, Flood, applied to paddy water, 2-leaf stage, visually evaluated after 10 to 14 days", "from_the_text": "as §3"}, "[27]": {"details": "31 g ai/ha, 0 to 100 scale (0 no effect, 100 complete control)"}, "[28]": {"details": "125 g ai/ha, 0 to 100 scale, 0 no effect, 100 complete control"}, "[29]": {"details": "31 g ai/ha, 0 to 100 scale (0 no effect, 100 complete control), 10 days"}}}
{"molecule": "Cc1cc(C)c(N(COC(=O)C(C)(C)C)S(=O)(=O)C(F)(F)F)cc1C(=O)N1CCC(F)(F)CC1", "note": "[Compound 350]", "values": [{"measurement": "Plant response rating, Blackgrass", "setting": "[1]; [27]", "value": 0}, {"measurement": "Plant response rating, Blackgrass", "setting": "[1]; [28]", "value": 0}, {"measurement": "Plant response rating, Corn", "setting": "corn (Zea mays) [2]; [27]", "value": 0}, {"measurement": "Plant response rating, Corn", "setting": "corn (Zea mays) [2]; [28]", "value": 0}, {"measurement": "Plant response rating, Foxtail, Giant", "setting": "[3]; [27]", "value": 0}, {"measurement": "Plant response rating, Foxtail, Giant", "setting": "[3]; [28]", "value": 80}, {"measurement": "Plant response rating, Goosegrass", "setting": "[4]; [27]", "value": 30}, {"measurement": "Plant response rating, Goosegrass", "setting": "[4]; [28]", "value": 90}, {"measurement": "Plant response rating, Kochia", "setting": "kochia (Bassia scoparia) [5]; [27]", "value": 20}, {"measurement": "Plant response rating, Kochia", "setting": "kochia (Bassia scoparia) [5]; [28]", "value": 70}, {"measurement": "Plant response rating, Oat, Wild", "setting": "[6]; [27]", "value": 0}, {"measurement": "Plant response rating, Oat, Wild", "setting": "[6]; [28]", "value": 10}, {"measurement": "Plant response rating, Pigweed, Palmer", "setting": "[7]; [27]", "value": 20}, {"measurement": "Plant response rating, Pigweed, Palmer", "setting": "[7]; [28]", "value": 60}, {"measurement": "Plant response rating, Ragweed", "setting": "[8]; [27]", "value": 20}, {"measurement": "Plant response rating, Ragweed", "setting": "[8]; [28]", "value": 80}, {"measurement": "Plant response rating, Ryegrass, Italian", "setting": "[9]; [27]", "value": 30}, {"measurement": "Plant response rating, Ryegrass, Italian", "setting": "[9]; [28]", "value": 30}, {"measurement": "Plant response rating, Soybean", "setting": "soybean (Glycine max) [10]; [27]", "value": 0}, {"measurement": "Plant response rating, Soybean", "setting": "soybean (Glycine max) [10]; [28]", "value": 0}, {"measurement": "Plant response rating, Wheat", "setting": "[11]; [27]", "value": 0}, {"measurement": "Plant response rating, Wheat", "setting": "[11]; [28]", "value": 10}, {"measurement": "Plant response rating, Blackgrass", "setting": "[12]; 31 g ai/ha, 10 days", "value": 0}, {"measurement": "Plant response rating, Blackgrass", "setting": "[12]; 125 g ai/ha", "value": 0}, {"measurement": "Plant response rating, Corn", "setting": "corn (Zea mays) [13]; [29]", "value": 0}, {"measurement": "Plant response rating, Corn", "setting": "corn (Zea mays) [13]; 125 g ai/ha, 0 to 100 scale", "value": 0}, {"measurement": "Plant response rating, Foxtail, Giant", "setting": "[14]; [29]", "value": 10}, {"measurement": "Plant response rating, Foxtail, Giant", "setting": "[14]; 125 g ai/ha, 0 to 100 scale", "value": 30}, {"measurement": "Plant response rating, Goosegrass", "setting": "[15]; [29]", "value": 10}, {"measurement": "Plant response rating, Goosegrass", "setting": "[15]; 125 g ai/ha, 0 to 100 scale", "value": 80}, {"measurement": "Plant response rating, Kochia", "setting": "kochia (Bassia scoparia) [16]; [29]", "value": 0}, {"measurement": "Plant response rating, Kochia", "setting": "kochia (Bassia scoparia) [16]; 125 g ai/ha, 0 to 100 scale", "value": 60}, {"measurement": "Plant response rating, Oat, Wild", "setting": "[17]; [29]", "value": 0}, {"measurement": "Plant response rating, Oat, Wild", "setting": "[17]; 125 g ai/ha, 0 to 100 scale", "value": 0}, {"measurement": "Plant response rating, Pigweed, Palmer", "setting": "[18]; [29]", "value": 30}, {"measurement": "Plant response rating, Pigweed, Palmer", "setting": "[18]; 125 g ai/ha, 0 to 100 scale", "value": 40}, {"measurement": "Plant response rating, Ragweed", "setting": "[19]; [29]", "value": 80}, {"measurement": "Plant response rating, Ragweed", "setting": "[19]; 125 g ai/ha, 0 to 100 scale", "value": 90}, {"measurement": "Plant response rating, Ryegrass, Italian", "setting": "[20]; [29]", "value": 30}, {"measurement": "Plant response rating, Ryegrass, Italian", "setting": "[20]; 125 g ai/ha, 0 to 100 scale", "value": 30}, {"measurement": "Plant response rating, Soybean", "setting": "soybean (Glycine max) [21]; [29]", "value": 10}, {"measurement": "Plant response rating, Soybean", "setting": "soybean (Glycine max) [21]; 125 g ai/ha, 0 to 100 scale", "value": 40}, {"measurement": "Plant response rating, Wheat", "setting": "[22]; [29]", "value": 0}, {"measurement": "Plant response rating, Wheat", "setting": "[22]; 125 g ai/ha, 0 to 100 scale", "value": 10}, {"measurement": "Plant response rating, Galium", "setting": "[23]; [29]", "value": 70}, {"measurement": "Plant response rating, Galium", "setting": "[23]; 125 g ai/ha, 0 to 100 scale", "value": 90}, {"measurement": "Plant response rating, Horseweed", "setting": "[24]; [29]", "value": 90}, {"measurement": "Plant response rating, Horseweed", "setting": "[24]; 125 g ai/ha, 0 to 100 scale", "value": 100}, {"measurement": "Plant response rating, Barnyardgrass (0 to 100 scale, 0 is no effect, 100 is complete control)", "setting": "[25]", "value": 90}, {"measurement": "Plant response rating, Ducksalad (0 to 100 scale, 0 is no effect, 100 is complete control)", "setting": "[26]", "value": 80}, {"measurement": "Plant response rating, Rice (0 to 100 scale, 0 is no effect, 100 is complete control)", "setting": "rice (Oryza sativa)", "value": 35}]}
